In US9675701B2, “Coloured disinfectant preparation based on bispyridiniumalkane” (L'AIR LIQUIDE, SOCIETE ANONYME POUR L'ETUDE ET …, priority 2014, dated 2017):

Legend:
S. aureus ATCC 6538 = experiment: Method A: remanence effect of the dried preparation on tiles, germ count determination; format: cell-based; conditions: preliminary experiments with a new type of method
Procedure: No in-vitro method was hitherto known for being able to rapidly examine (i.e. screen) the potential impairment of the remanent effect of antiseptic active ingredients due to added dyes, and specifically in particular in the presence of large amounts of solvents, such as alcohols. […] 0.2 ml of the test preparation was spread to the edge on a tile measuring 5×5 cm and left to dry optically. Here, solvents evaporate and the antiseptic active ingredient (octenidine was tested) remains on the tile. Then, 0.1 ml of bacteria suspension (test germ S. aureus ATCC 6538, starting germ count of the solution 10^6 CFU/ml, on the tile then 10^5 CFU/ml) is applied to an area of 3×3 cm on the tile. After the corresponding contact time, the tile is transferred to a container filled with glass beads (diameter 3-4 mm) and 10 ml of neutralization solution (TLSH) and shaken for 2 minutes on a horizontal shaker at 200 rpm. Finally, a germ count determination is performed by means of dilution series. The dilution stages 10^0, 10^−1, 10^−2 and 10^−3 are plated out. The agar plates are incubated for 24-48 hours at 36±1° C. The CFU/ml resulting therefrom is used to calculate the logarithmic reduction factor (RF) for the preparations and the water control. A high […] reduction factor means good bactericidal efficacy of the preparation. […]

[1] = Efficacy of octenidine in Octeniderm with added dye
Excerpt: However, blue dyes are not accepted by the market on account of the poor visibility of the vessels under the skin.

SMILES	remanence effect of octenidine in preparations which comprise the dye (S. aureus ATCC 6538)	restriction of the efficacy of the octenidine in Octeniderm by the dye [1]
O=C([O-])c1ccccc1-c1c2ccc(=O)cc-2oc2cc([O-])ccc12.[Na+].[Na+] [uranine]	inhibited	–
CCN(CC)c1ccc(C(=C2C=CC(=[N+](CC)CC)C=C2)c2cc(O)c(S(=O)(=O)[O-])cc2S(=O)(=O)[O-])cc1.CCN(CC)c1ccc(C(=C2C=CC(=[N+](CC)CC)C=C2)c2cc(O)c(S(=O)(=O)[O-])cc2S(=O)(=O)[O-])cc1.[Ca+2] [Patent Blue V]	–	no restriction of the efficacy
